Like-named read-outs stand apart in the source and are kept apart here.
How the values were obtained:
[1] = Phase II trials of obicetrapib, integrated summary of post-treatment elimination; type: in vivo, humans
Description: The Phase II trials of obicetrapib described herein include the TA‐8995: Its Use in Patients with Mild Dyslipidaemia (TULIP)[10] study, the Randomized Study of Obicetrapib as an Adjunct to Statin Therapy (ROSE),[11] the Study to Evaluate the Effect of Obicetrapib in Combination with Ezetimibe as an Adjunct to High‐Intensity Statin Therapy (ROSE2),[12] and A Dose‐Finding Study in Japanese Patients to Evaluate the Effect of Obicetrapib as an Adjunct to Stable Statin Therapy (TA‐8995‐203).[13]

[2] = 39-week oral (gavage) toxicity/toxicokinetic study with 13-week treatment-free recovery period in cynomolgus monkeys; type: in vivo, cynomolgus monkeys (Macaca fascicularis); details: for AUC(0–24) / Cmax / AUC(0-t): mean; for Rac AUC(0–24 h) (accumulation ratio) / Rac C max (accumulation ratio): Week 39 / Day 1; for concentration at 13 weeks after last dose / half-life / t max / Cmax / AUC(0-t): cynomolgus monkey; for concentration at 13 weeks after last dose: oral, after 13‐week treatment‐free period, all four recovery monkeys; for half-life / t max / Cmax / AUC(0-t): plasma, po; for AUC(0-t): read-out: AUC(0–24) (converted)
Experimental: CETP is present and active in non‐human primates, rabbits, and hamsters, but is absent in most other animal species, including mice, rats, and dogs.[2], [31], [32] A non‐human primate study was conducted using cynomolgus monkeys (Macaca fascicularis) to evaluate the toxicity of obicetrapib (TA‐8995), following twice daily (b.i.d.), six h apart, oral (gavage) administration to the monkey for 39 weeks (Clinical Study Report [CSR], NewAmsterdam Pharma). The monkey was selected as the species for this study because the CETP structure in monkeys is very similar to the structure of human CETP.[33] The cynomolgus monkeys were obtained from Noveprim Ltd, Mauritius. The monkeys were approximately 26–30 months old when obtained for the study and 28–32 months old at the start of dosing. On arrival at the study site, the weight range of the monkeys was 2.4–3.3 kg. Individual body weights were recorded once weekly (including Day 1 before the start of dosing) from time of allocation and on the day of necropsy. At the start of dosing, the weight range of the monkeys was 2.4–3.3 kg and 2.5–3.9 kg for the females and males, respectively. The weight range of the monkeys at the end of the dosing period (Week 39) was 3.0–4.8 kg and 3.0–5.2 kg for females and males, respectively.
The weight range of the recovery monkeys (n = 8) at Week 14 of the recovery period, prior to necropsy, was 3.5–5.2 kg and 3.7–4.9 kg for the females and males, respectively.
The animals were housed in pens that conform to the “Code of practice for the housing and care of animals used in scientific procedures” in rooms exclusive to the study. The rooms were air‐conditioned to provide 15–20 air changes/hour, and the temperature and relative humidity ranges were maintained at 21–25°C and 40–70%, respectively. Fluorescent lighting was controlled automatically to give a cycle of 12 h light and 12 h dark, with the exception of when experimental procedures dictated otherwise. A number of strategies were used for environmental enrichment for the monkeys, such as the provision of toys (e.g., balls, inert nylon chews), swings, and foraging materials. The monkeys were offered ad libitum water, 100 g of SQC Mazuri Primate Diet (Special Diets Services Ltd., Witham, UK), and a 25 g Bonio biscuit (Spillers) each day. When available, the diet was supplemented twice daily with fresh fruit, fresh vegetables, forage mix, peanuts, raisins, or sunflower seeds. The study was conducted in accordance with the requirements of the Animals (Scientific Procedures) Act 1986 and a local ethical review was maintained (CSR, NewAmsterdam Pharma).
The monkeys (n = 40; 20 of each sex) were allocated into four groups (based on existing social groupings) to receive treatment for 39 weeks: a control group (no treatment), a low‐dose group (10 mg/kg/day [5 mg/kg/b.i.d.] of obicetrapib), an intermediate‐dose group (20 mg/kg/day [10 mg/kg/b.i.d.] of obicetrapib), and a high‐dose group (50 mg/kg/day [25 mg/kg/b.i.d.] of obicetrapib). Four monkeys (two of each sex) from the 50 mg/kg/day dose group and four (two of each sex) from the control group were followed for an extended treatment‐free period of 13 weeks (recovery period). Obicetrapib was dosed as a suspension in 0.5% sodium carboxylmethyl cellulose solution and 0.1% polyoxyethylene hydrogenated castor oil. Toxicokinetic parameters were examined after 39 weeks of dosing. Blood samples for toxicokinetic evaluation were taken from all monkeys in the study on Day 1 and Day 273 (Week 39) pre‐dose and at 0.5, 1, 2, 3, 4, 6, 7.5, 9, 10, 12, and 24 h after dosing. Blood samples for toxicokinetic assessments were taken from the recovery animals on multiple days during the treatment‐free period at the same time intervals as the 24‐hour samples in Week 39. Delayed onset toxicity and/or reversibility of toxicity were examined during the 13‐week treatment‐free period. […]

[3] = female, 10 mg/kg/day, Day 1, 10 mg/kg/d, females
[4] = female, 20 mg/kg/day, Day 1, 20 mg/kg/d, females
[5] = female, 50 mg/kg/day, Day 1, 50 mg/kg/d, females
[6] = male, 10 mg/kg/day, Day 1, 10 mg/kg/d, males
[7] = male, 20 mg/kg/day, Day 1, 20 mg/kg/d, males
[8] = male, 50 mg/kg/day, Day 1, 50 mg/kg/d, males

## CCOC(=O)N1c2ccc(C(F)(F)F)cc2C(N(Cc2cc(C(F)(F)F)cc(C(F)(F)F)c2)c2ncc(OCCCC(=O)O)cn2)CC1CC (stereo not drawn) [Obicetrapib]
[1]; 15 weeks post‐treatment
  decrease of plasma levels of obicetrapib: 98.5%
[1]; four weeks post‐treatment
  decrease of plasma levels of obicetrapib: 92.2%
[2]; Day 273 (Week 39), 10 mg/kg/d, females
  AUC(0–24): 41 300 ngh/mL
[2]; Day 273 (Week 39), 10 mg/kg/d, males
  AUC(0–24): 40 300 ngh/mL
[2]; Day 273 (Week 39), 20 mg/kg/d, females
  AUC(0–24): 54 000 ngh/mL
[2]; Day 273 (Week 39), 20 mg/kg/d, males
  AUC(0–24): 65 200 ngh/mL
[2]; Day 273 (Week 39), 50 mg/kg/d, females
  AUC(0–24): 103 000 ngh/mL
[2]; Day 273 (Week 39), 50 mg/kg/d, males
  AUC(0–24): 111 000 ngh/mL
[2]; 10 mg/kg/d, females, mean (SD)
  Rac AUC(0–24 h) (accumulation ratio): 1.4 (0.2)
  Rac C max (accumulation ratio): 1.0 (0.2)
[2]; 10 mg/kg/d, males, mean (SD)
  Rac AUC(0–24 h) (accumulation ratio): 1.4 (0.3)
  Rac C max (accumulation ratio): 1.4 (0.1)
[2]; 20 mg/kg/d, females, mean (SD)
  Rac AUC(0–24 h) (accumulation ratio): 1.1 (0.2)
  Rac C max (accumulation ratio): 1.1 (0.2)
[2]; 20 mg/kg/d, males, mean (SD)
  Rac AUC(0–24 h) (accumulation ratio): 1.4 (0.2)
  Rac C max (accumulation ratio): 1.4 (0.3)
[2]; 50 mg/kg/d, females, mean (SD)
  Rac AUC(0–24 h) (accumulation ratio): 0.9 (0.2)
  Rac C max (accumulation ratio): 0.8 (0.1)
[2]; 50 mg/kg/d, males, mean (SD)
  Rac AUC(0–24 h) (accumulation ratio): 1.0 (0.1)
  Rac C max (accumulation ratio): 1.0 (0.2)
[2]; both sexes, fat homogenate, 50 mg/kg/day, read-out: obicetrapib in fat homogenate (below LLOQ)
  concentration at 13 weeks after last dose: < 0.5 ng/mL
[2]; both sexes, 50 mg/kg/day, perirenal white fat, read-out: obicetrapib in adipose tissue (below LLOQ), per g of fat
  concentration at 13 weeks after last dose: < 10 ng/g
[2]; both sexes, Day 1, read-out: Apparent t 1/2 for the individual monkeys
  half-life: 4.8 to 10.5 h
[2]; both sexes, Day 1, read-out: mean t 1/2, range over groups
  half-life: 5.8 to 7.2 h
[2]; both sexes, Day 273, read-out: mean t 1/2, range over groups
  half-life: 6.4 to 12.1 h
[2]; both sexes, Week 39, with one exception, read-out: Apparent t 1/2 for the individual monkeys
  half-life: 5.3 to 18.3 h
[2]; end of 13‐week treatment‐free period, 50 mg/kg/day, both males and one female
  elimination of obicetrapib from plasma: complete
[2]; end of 13‐week treatment‐free period, 50 mg/kg/day, one recovery female
  obicetrapib detected in plasma, % of the observed maximum concentration: 0.25%
[2]; end of treatment, all of the monkeys, 3 h after the second dose
  time within which the mean C max was achieved: ≤ 9 h
[2]; female, 10 mg/kg/day, Day 1, 10 mg/kg/d, females, mean (SD)
  t max: 5.9 h
[2]; female, 10 mg/kg/day, Day 1, 10 mg/kg/d, females, mean (SD), read-out: t ½ (elimination half‐life) (converted)
  half-life: 7.2 h
[2]; female, 10 mg/kg/day, Day 273 (Week 39), 10 mg/kg/d, females
  Cmax: 3390 ng/mL
[2]; female, 10 mg/kg/day, Day 273 (Week 39), 10 mg/kg/d, females, mean (SD)
  t max: 4.8 h
[2]; female, 10 mg/kg/day, Day 273 (Week 39), 10 mg/kg/d, females, mean (SD), read-out: t ½ (elimination half‐life) (converted)
  half-life: 12.1 h
[2]; [3]
  Cmax: 3300 ng/mL
  AUC(0-t): 29800 ng·h/mL
[2]; female, 20 mg/kg/day, Day 1, 20 mg/kg/d, females, mean (SD)
  t max: 4.8 h
[2]; female, 20 mg/kg/day, Day 1, 20 mg/kg/d, females, mean (SD), read-out: t ½ (elimination half‐life) (converted)
  half-life: 5.8 h
[2]; female, 20 mg/kg/day, Day 273 (Week 39), 20 mg/kg/d, females
  Cmax: 5160 ng/mL
[2]; female, 20 mg/kg/day, Day 273 (Week 39), 20 mg/kg/d, females, mean (SD)
  t max: 4.8 h
[2]; female, 20 mg/kg/day, Day 273 (Week 39), 20 mg/kg/d, females, mean (SD), read-out: t ½ (elimination half‐life) (converted)
  half-life: 8.8 h
[2]; [4]
  Cmax: 4980 ng/mL
  AUC(0-t): 47800 ng·h/mL
[2]; female, 50 mg/kg/day, 50 mg/kg/day group, female with detectable concentrations 13 weeks after the last dose, read-out: t ½ of one outlier female (converted)
  half-life: 516 h
[2]; female, 50 mg/kg/day, Day 1, 50 mg/kg/d, females, mean (SD)
  t max: 6.2 h
[2]; female, 50 mg/kg/day, Day 1, 50 mg/kg/d, females, mean (SD), read-out: t ½ (elimination half‐life) (converted)
  half-life: 6.8 h
[2]; female, 50 mg/kg/day, Day 273 (Week 39), 50 mg/kg/d, females
  Cmax: 8480 ng/mL
[2]; female, 50 mg/kg/day, Day 273 (Week 39), 50 mg/kg/d, females, mean (SD)
  t max: 6.6 h
[2]; female, 50 mg/kg/day, Day 273 (Week 39), 50 mg/kg/d, females, mean (SD), does not include data from one outlier, read-out: t ½ (elimination half‐life) (converted)
  half-life: 7.4 h
[2]; female, 50 mg/kg/day, females in the high dose group (50 mg/kg/day), Week 39, read-out: mean t 1/2 including the outlier (converted)
  half-life: 109 h
[2]; [5]
  Cmax: 11600 ng/mL
  AUC(0-t): 118000 ng·h/mL
[2]; male, 10 mg/kg/day, Day 1, 10 mg/kg/d, males, mean (SD)
  t max: 5 h
[2]; male, 10 mg/kg/day, Day 1, 10 mg/kg/d, males, mean (SD), read-out: t ½ (elimination half‐life) (converted)
  half-life: 6.8 h
[2]; male, 10 mg/kg/day, Day 273 (Week 39), 10 mg/kg/d, males
  Cmax: 3800 ng/mL
[2]; male, 10 mg/kg/day, Day 273 (Week 39), 10 mg/kg/d, males, mean (SD)
  t max: 2 h
[2]; male, 10 mg/kg/day, Day 273 (Week 39), 10 mg/kg/d, males, mean (SD), read-out: t ½ (elimination half‐life) (converted)
  half-life: 11 h
[2]; [6]
  Cmax: 2800 ng/mL
  AUC(0-t): 29300 ng·h/mL
[2]; male, 20 mg/kg/day, Day 1, 20 mg/kg/d, males, mean (SD)
  t max: 2.5 h
[2]; male, 20 mg/kg/day, Day 1, 20 mg/kg/d, males, mean (SD), read-out: t ½ (elimination half‐life) (converted)
  half-life: 6.9 h
[2]; male, 20 mg/kg/day, Day 273 (Week 39), 20 mg/kg/d, males
  Cmax: 6410 ng/mL
[2]; male, 20 mg/kg/day, Day 273 (Week 39), 20 mg/kg/d, males, mean (SD)
  t max: 2.3 h
[2]; male, 20 mg/kg/day, Day 273 (Week 39), 20 mg/kg/d, males, mean (SD), read-out: t ½ (elimination half‐life) (converted)
  half-life: 8.1 h
[2]; [7]
  Cmax: 4740 ng/mL
  AUC(0-t): 46600 ng·h/mL
[2]; male, 50 mg/kg/day, Day 1, 50 mg/kg/d, males, mean (SD)
  t max: 7.6 h
[2]; male, 50 mg/kg/day, Day 1, 50 mg/kg/d, males, mean (SD), read-out: t ½ (elimination half‐life) (converted)
  half-life: 6.8 h
[2]; male, 50 mg/kg/day, Day 273 (Week 39), 50 mg/kg/d, males
  Cmax: 9210 ng/mL
[2]; male, 50 mg/kg/day, Day 273 (Week 39), 50 mg/kg/d, males, mean (SD)
  t max: 8.5 h
[2]; male, 50 mg/kg/day, Day 273 (Week 39), 50 mg/kg/d, males, mean (SD), read-out: t ½ (elimination half‐life) (converted)
  half-life: 6.4 h
[2]; [8]
  Cmax: 9600 ng/mL
  AUC(0-t): 118000 ng·h/mL
[2]; recovery period, monkeys treated at 50 mg/kg/day (25 mg/kg/b.i.d.)
  mean body weights: comparable with the control monkeys
[2]; treated monkeys, dosing period
  Group mean body weights: comparable with the control monkeys
